Assay results reported in US9884823B2, “Oxime ether acetate compound, preparation method therefor and weeding application thereof” (ZHEJIANG UNIVERSITY OF TECHNOLOGY, priority 2014, dated 2018).
Like-named read-outs stand apart in the source and are kept apart here.

How the values were obtained:
[1] = test system: Wheat; test: Culture dish method (general screening); type: in vivo; details: 100 mg/L, 7 days
Excerpt: (§3) Culture dish method (general screening): The test targets were radish, cucumber, rape, wheat, sorghum and barnyard grass; the seeds of wheat, sorghum and radish were germinated in advance, and the uniform emerge-germinating seeds were used in the test.

[2] = test system: Chinese sorghum; test: Culture dish method (general screening); type: in vivo; details: 100 mg/L, 7 days
Excerpt: as §3

[3] = test system: Barnyardgrass; test: Culture dish method (general screening); type: in vivo, barnyard grass; details: 100 mg/L, 7 days
Excerpt: as §3

[4] = test system: Cucumber; test: Culture dish method (general screening); type: in vivo; details: 100 mg/L, 7 days
Excerpt: as §3

[5] = test system: Rape; test: Culture dish method (general screening); type: in vivo; details: 100 mg/L, 7 days
Excerpt: as §3

[6] = test system: Radish; test: Culture dish method (general screening); type: in vivo; details: 100 mg/L, 7 days
Excerpt: as §3

[7] = test system: Abutilon; test: Potted plants live body test; type: in vivo; details: 150 g a.i./ha, 30 days, Table 9
Excerpt: (§1) The raw drug which was selected from the compounds in table 1 was weighed using an analytical balance (0.0001 g), and dissolved in DMF containing 1 wt % Tween-80 emulsifier to prepare a mother liquor of raw drug with a mass concentration of 1.0˜5.0%, and then diluted with distilled water, to prepare preparations at desired concentrations according to the ratio of ingredients in Examples 8, 9 and 10.
(§2) The test targets were mustard, small quinoa, Abutilon, amaranthus retroflexus, Eclipta prostrata, crabgrass, dog point. A pot with a diameter of 7.5 cm was used, filled with composite soil (garden soil:nursery matrix, 1:2, v/v) to ¾ of the pot, then the above […] kinds of weeds targets were directly seeded (germination rate ≧85%), covered with soil at a thickness of 0.2 cm. When the weeds grew to 3-leaf stage, pre-emergence soil treatment for weeds planting, and then spraying was performed.

[8] = test system: Crabgrass; test: Potted plants live body test; type: in vivo; details: 150 g a.i./ha, 30 days, Table 9
Excerpt: as §1, §2

[9] = test system: Dog point; test: Potted plants live body test; type: in vivo; details: 150 g a.i./ha, 30 days, Table 9
Excerpt: as §1, §2

[10] = test system: Eclipta prostrata; test: Potted plants live body test; type: in vivo; details: 150 g a.i./ha, 30 days, Table 9
Excerpt: as §1, §2

[11] = test system: amaranthus retroflexus; test: Potted plants live body test; type: in vivo; details: 150 g a.i./ha, 30 days, Table 9
Excerpt: as §1, §2

[12] = test system: Small quinoa; details: 150 g a.i./ha, 30 days, Table 9
Excerpt: as §1, §2

[13] = test system: broadleaf weeds such as mustard, small quinoa, Abutilon, Amaranthus retroflexus and Eclipta prostrate; details: 150 g a.i./ha; for herbicidal activity on broadleaf weeds targets: 30 days after administration, Table 9 summary; for activity on the growth of broadleaf weeds: postemergence spraying, 30 days, vs clear water control
Excerpt: as §1, §2

[14] = test system: grass weeds such as crabgrass, barnyard grass, dog point; details: 150 g a.i./ha; for activity for grass targets such as crabgrass and dog point: 30 days after administration, Table 9 summary; for activity on grass weeds such as crabgrass, dog point: postemergence spraying, 30 days
Excerpt: as §1, §2

[15] = test system: Mustard; details: 150 g a.i./ha, 30 days, Table 9

| Structure (SMILES) | inhibition rate, Wheat Root [1] [%] | inhibition rate, Wheat Stem [1] [%] | inhibition rate, Chinese sorghum Root [2] [%] | inhibition rate, Chinese sorghum Stem [2] [%] | inhibition rate, Barnyardgrass Root [3] [%] | inhibition rate, Barnyardgrass Stem [3] [%] | inhibition rate, Cucumber Root [4] [%] | inhibition rate, Cucumber Stem [4] [%] | inhibition rate, Rape Root [5] [%] | inhibition rate, Rape Stem [5] [%] | inhibition rate, Radish Root [6] [%] | inhibition rate, Radish Stem [6] [%] | also measured |
| --- | --- | --- | --- | --- | --- | --- | --- | --- | --- | --- | --- | --- | --- |
| CON=C(C(=O)OC)c1ccccc1COc1cccc(-c2ccccn2)c1 [Compound 4] | 0 | 0 | 0 | 0 | 30 | 30 | 30 | 0 | 30 | 0 | 50 | 30 |  |
| CON=C(C(=O)OC)c1ccccc1COc1cccc(-c2ccnc(Cl)c2)c1 [Compound 67] | 30 | 0 | 50 | 50 | 50 | 0 | 50 | 0 | 50 | 30 | 50 | 50 |  |
| CON=C(C(=O)OC)c1ccccc1COc1cccc(-c2cc(C)ccn2)c1 [Compound 84] | 0 | 0 | 0 | 0 | 80 | 0 | 30 | 0 | 50 | 0 | 0 | 0 |  |
| CON=C(C(=O)OC)c1ccccc1COc1cccc(-c2nc(Cl)c(Cl)cc2Cl)c1 [Compound 99] | 30 | 0 | 50 | 50 | 50 | 0 | 70 | 0 | 60 | 30 | 60 | 50 | efficiency, Abutilon ([7]; Postemergence spraying): 20%; efficiency, Abutilon ([7]; Pre-emergence soil treatment): 0%; efficiency, Crabgrass ([8]; Postemergence spraying): 0%; efficiency, Crabgrass ([8]; Pre-emergence soil treatment): 0%; efficiency, Dog point ([9]; Postemergence spraying): 0%; efficiency, Dog point ([9]; Pre-emergence soil treatment): 0%; efficiency, Eclipta prostrata ([10]; Postemergence spraying): 25%; efficiency, Eclipta prostrata ([10]; Pre-emergence soil treatment): 0%; efficiency, amaranthus retroflexus ([11]; Postemergence spraying): 40%; efficiency, amaranthus retroflexus ([11]; Pre-emergence soil treatment): 0%; efficiency, Small quinoa ([12]; Postemergence spraying): 50%; efficiency, Small quinoa ([12]; Pre-emergence soil treatment): 30%; herbicidal activity on broadleaf weeds targets [13]: herbicidal activity; activity on the growth of broadleaf weeds [13]: inhibitory activity; activity for grass targets such as crabgrass and dog point [14]: poor activity; activity on grass weeds such as crabgrass, dog point [14]: almost have no activity; efficiency, Mustard ([15]; Postemergence spraying): 60%; efficiency, Mustard ([15]; Pre-emergence soil treatment): 0% |
| CON=C(C(=O)OC)c1ccccc1COc1cccc(-c2cccc(C)n2)c1 [Compound 85] | 60 | 20 | 80 | 30 | 80 | 0 | 80 | 30 | 80 | 50 | 50 | 50 | efficiency, Abutilon ([7]; Postemergence spraying): 50%; efficiency, Abutilon ([7]; Pre-emergence soil treatment): 20%; efficiency, Crabgrass ([8]; Postemergence spraying): 0%; efficiency, Crabgrass ([8]; Pre-emergence soil treatment): 0%; efficiency, Dog point ([9]; Postemergence spraying): 0%; efficiency, Dog point ([9]; Pre-emergence soil treatment): 0%; efficiency, Eclipta prostrata ([10]; Postemergence spraying): 50%; efficiency, Eclipta prostrata ([10]; Pre-emergence soil treatment): 0%; efficiency, amaranthus retroflexus ([11]; Postemergence spraying): 0%; efficiency, amaranthus retroflexus ([11]; Pre-emergence soil treatment): 0%; efficiency, Small quinoa ([12]; Postemergence spraying): 0%; efficiency, Small quinoa ([12]; Pre-emergence soil treatment): 0%; herbicidal activity on broadleaf weeds targets [13]: herbicidal activity; activity on the growth of broadleaf weeds [13]: inhibitory activity; activity for grass targets such as crabgrass and dog point [14]: poor activity; activity on grass weeds such as crabgrass, dog point [14]: almost have no activity; efficiency, Mustard ([15]; Postemergence spraying): 30%; efficiency, Mustard ([15]; Pre-emergence soil treatment): 20% |
| CON=C(C(=O)OC)c1ccccc1COc1ccc(-c2ccccn2)cc1 [Compound 7] | 20 | 0 | 0 | 0 | 50 | 20 | 30 | 0 | 60 | 30 | 20 | 0 |  |
| CON=C(C(=O)OC)c1ccccc1COc1cccc(-c2ncccc2C)c1 [Compound 83] | 60 | 20 | 80 | 30 | 80 | 0 | 80 | 30 | 80 | 50 | 50 | 50 | efficiency, Abutilon ([7]; Postemergence spraying): 30%; efficiency, Abutilon ([7]; Pre-emergence soil treatment): 0%; efficiency, Crabgrass ([8]; Postemergence spraying): 0%; efficiency, Crabgrass ([8]; Pre-emergence soil treatment): 0%; efficiency, Dog point ([9]; Postemergence spraying): 0%; efficiency, Dog point ([9]; Pre-emergence soil treatment): 0%; efficiency, Eclipta prostrata ([10]; Postemergence spraying): 0%; efficiency, Eclipta prostrata ([10]; Pre-emergence soil treatment): 0%; efficiency, amaranthus retroflexus ([11]; Postemergence spraying): 20%; efficiency, amaranthus retroflexus ([11]; Pre-emergence soil treatment): 20%; efficiency, Small quinoa ([12]; Postemergence spraying): 50%; efficiency, Small quinoa ([12]; Pre-emergence soil treatment): 30%; herbicidal activity on broadleaf weeds targets [13]: herbicidal activity; activity on the growth of broadleaf weeds [13]: inhibitory activity; activity for grass targets such as crabgrass and dog point [14]: poor activity; activity on grass weeds such as crabgrass, dog point [14]: almost have no activity; efficiency, Mustard ([15]; Postemergence spraying): 0%; efficiency, Mustard ([15]; Pre-emergence soil treatment): 0% |
| CON=C(C(=O)OC)c1ccccc1COc1ccc(-c2ccc(C(F)(F)F)cn2)cc1 [Compound 32] | 0 | 0 | 0 | 0 | 0 | 0 | 0 | 0 | 80 | 80 | 80 | 50 |  |
| CON=C(C(=O)OC)c1ccccc1COc1cccc(-c2c(Cl)cncc2Cl)c1 [Compound 110] | 0 | 0 | 0 | 0 | 0 | 0 | 20 | 0 | 20 | 0 | 0 | 0 |  |
| CON=C(C(=O)OC)c1ccccc1COc1ccc(-c2ccnc(Cl)c2)cc1 [Compound 75] | 0 | 0 | 0 | 0 | 30 | 30 | 30 | 0 | 0 | 0 | 0 | 0 |  |
| CON=C(C(=O)OC)c1ccccc1COc1cccc(-c2ncc(Br)cc2[N+](=O)[O-])c1 [Compound 104] | 0 | 0 | 0 | 0 | 0 | 0 | 20 | 0 | 50 | 0 | 0 | 0 |  |
